This is an account of results in the Kinase Knowledgebase extract (Sharma et al. 2016).

A word on the pIC50: it is the IC50 on a negative log10 scale, so that one unit is a factor of ten. Read a high pIC50 as a small IC50.

pIC50: −log10 of the molar value.

This experiment has as its target PIK3CD (Human) (UniProt O00329). The experiment in a line: Enzyme Assay.

Chain of PIK3CD (Human) (O00329 whole entry, looked up): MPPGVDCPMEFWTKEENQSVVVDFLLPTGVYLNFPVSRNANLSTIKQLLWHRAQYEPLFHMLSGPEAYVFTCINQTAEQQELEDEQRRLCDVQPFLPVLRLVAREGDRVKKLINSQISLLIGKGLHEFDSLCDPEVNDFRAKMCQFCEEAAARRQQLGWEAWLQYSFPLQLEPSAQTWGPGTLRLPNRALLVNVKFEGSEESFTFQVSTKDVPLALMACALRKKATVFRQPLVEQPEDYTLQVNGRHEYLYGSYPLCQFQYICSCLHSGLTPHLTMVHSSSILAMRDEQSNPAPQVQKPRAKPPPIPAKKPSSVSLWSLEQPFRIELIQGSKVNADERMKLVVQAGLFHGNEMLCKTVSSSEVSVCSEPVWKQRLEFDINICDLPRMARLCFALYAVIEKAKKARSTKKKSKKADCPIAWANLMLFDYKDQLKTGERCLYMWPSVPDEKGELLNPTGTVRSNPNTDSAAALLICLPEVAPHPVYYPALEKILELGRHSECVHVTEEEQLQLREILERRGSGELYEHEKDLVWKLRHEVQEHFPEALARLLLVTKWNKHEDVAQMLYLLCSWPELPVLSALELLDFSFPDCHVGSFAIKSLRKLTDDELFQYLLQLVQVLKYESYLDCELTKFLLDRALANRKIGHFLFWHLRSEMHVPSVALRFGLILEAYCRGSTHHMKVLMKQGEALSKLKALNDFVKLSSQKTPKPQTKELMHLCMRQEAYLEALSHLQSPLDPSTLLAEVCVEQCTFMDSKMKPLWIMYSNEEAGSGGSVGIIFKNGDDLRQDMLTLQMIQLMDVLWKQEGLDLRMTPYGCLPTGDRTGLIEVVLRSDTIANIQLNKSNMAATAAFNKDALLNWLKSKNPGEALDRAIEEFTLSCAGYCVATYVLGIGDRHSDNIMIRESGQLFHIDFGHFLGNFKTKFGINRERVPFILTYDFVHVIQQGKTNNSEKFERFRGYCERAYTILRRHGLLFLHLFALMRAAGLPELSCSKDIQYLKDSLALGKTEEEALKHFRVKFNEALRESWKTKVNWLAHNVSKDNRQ

For `C[C@H](Nc1nc(N)nc(N)c1C#N)c1nc2cccc(F)c2c(=O)n1-c1cc(F)cc(C(F)F)c1`, the pIC50 was 7.30 to 8.00. The result for `CC[C@H](Nc1nc(N)nc(N)c1C#N)c1nc2c(F)cc(F)cc2c(=O)n1-c1cc(F)cc(F)c1` reads 7.30 to 8.00. Consider `COc1cc(C(F)F)cc(-n2c([C@H](C)Nc3nc(N)nc(N)c3C#N)nc3cccc(Cl)c3c2=O)c1`, for which the pIC50 was 8.00 to 9.00. `C[C@H](Nc1nc(N)nc(N)c1C#N)c1nc2cccc(Cl)c2c(=O)n1-c1cc(Cl)cc(Cl)c1` gave a negative-log IC50 (pIC50) of 8.00 to 9.00. Consider `C[C@H](Nc1nc(N)nc(N)c1C#N)c1nc2c(F)ccc(F)c2c(=O)n1-c1cc(F)cc(F)c1`, for which the pIC50 is 8.00 to 9.00. As for `Cc1ccc(Cl)c2c(=O)n(-c3ccccc3)c([C@H](C)Nc3nc(N)nc(N)c3C#N)nc12`, the figure is not below 9.00. The result for `C[C@H](Nc1nc(N)nc(N)c1C#N)c1nc2cccc(C(N)=O)c2c(=O)n1-c1cc(F)cc(F)c1` reads 7.30 to 8.00. The result for `C[C@H](Nc1nc(N)nc(N)c1C#N)c1nc2c(F)ccc(Cl)c2c(=O)n1-c1cccc(C#N)c1` reads 8.00 to 9.00; that for `C[C@H](Nc1nc(N)nc(N)c1C#N)c1nc2cccc(Cl)c2c(=O)n1-c1cc(F)cc(Cl)c1`, 8.00 to 9.00; that for `C[C@H](Nc1nc(N)nc(N)c1C#N)c1nc2cccc(C#N)c2c(=O)n1-c1cc(F)cc(C(F)F)c1`, 7.30 to 8.00. In turn, `C[C@H](Nc1nc(N)nc(N)c1C#N)c1nc2c(C#N)cccc2c(=O)n1-c1cc(F)cc(F)c1` had a pIC50 of 8.00 to 9.00. Take `C[C@H](Nc1nc(N)nc(N)c1Cl)c1nc2cccc(S(C)(=O)=O)c2c(=O)n1-c1cccc(F)c1`: the pIC50 is 8.00 to 9.00. Take `C[C@H](Nc1nc(N)nc(N)c1C#N)c1nc2cccc(S(C)(=O)=O)c2c(=O)n1-c1cccc(C(F)F)c1`: the negative-log IC50 (pIC50) is 8.00 to 9.00. The result for `Cc1cccc2nc([C@H](C)Nc3nc(N)nc(N)c3C#N)n(-c3ccccc3)c(=O)c12` reads not below 9.00.

The molecule `Cc1ccc(F)c2nc([C@H](C)Nc3nc(N)nc(N)c3C#N)n(-c3cc(F)cc(C#N)c3)c(=O)c12` had a pIC50 of 8.00 to 9.00.

In the case of `C[C@H](Nc1nc(N)nc(N)c1C#N)c1nc2cccc(Cl)c2c(=O)n1-c1cc(F)cc(C(F)(F)F)c1`, the pIC50 is 8.00 to 9.00. As for `C[C@H](Nc1nc(N)nc(N)c1C#N)c1nc2c(Cl)ccc(Cl)c2c(=O)n1-c1ccccc1`, the figure is not below 9.00; as for `C[C@H](Nc1nc(N)nc(N)c1C#N)c1nc2c(C#N)cc(F)cc2c(=O)n1-c1cccc(F)c1`, 8.00 to 9.00. `CC[C@H](Nc1nc(N)nc(N)c1C#N)c1nc2ccccc2c(=O)n1-c1cc(F)cc(F)c1` gave a negative-log IC50 (pIC50) of 7.30 to 8.00. Take `C[C@H](Nc1nc(N)nc(N)c1C#N)c1nc2cccc(Cl)c2c(=O)n1-c1cccc(C(F)(F)F)c1`: the pIC50 was 8.00 to 9.00. In turn, `CC[C@H](C)[C@H](Nc1nc(N)nc(N)c1C#N)c1nc2cccc(Cl)c2c(=O)n1-c1cc(F)cc(F)c1` showed a pIC50 of 8.00 to 9.00. In turn, `Cc1ccc(F)c2nc([C@H](C)Nc3nc(N)nc(N)c3C#N)n(-c3cc(F)cc(F)c3)c(=O)c12` showed a pIC50 not below 9.00.

Turning to `C[C@H](Nc1ncnc(N)c1C#N)c1nc2cccc(Cl)c2c(=O)n1-c1cc(F)cc(F)c1`, the pIC50 is 8.00 to 9.00. The result for `C[C@H](Nc1nc(N)nc(N)c1C#N)c1nc2ccc(F)cc2c(=O)n1-c1cccc(Cl)c1` reads 8.00 to 9.00; that for `C[C@H](Nc1nc(N)nc(N)c1C#N)c1nc2cccc(C(F)F)c2c(=O)n1-c1cccc(C#N)c1`, 8.00 to 9.00. In the case of `C[C@H](Nc1nc(N)nc(N)c1C#N)c1nc2cccc(F)c2c(=O)n1-c1cccc(CC(F)F)c1`, the pIC50 was 8.00 to 9.00. The molecule `C[C@H](Nc1nc(N)nc(N)c1C#N)c1nc2c(C(F)F)cccc2c(=O)n1-c1ccccc1` had a pIC50 of 7.30 to 8.00. Regarding `C[C@H](Nc1ncnc(N)c1C#N)c1nc2cccc(Cl)c2c(=O)n1-c1ccccc1`, the negative logarithm of the IC50 (pIC50) was not below 9.00. The result for `C[C@H](Nc1nc(N)nc(N)c1C#N)c1nc2c(Cl)cccc2c(=O)n1-c1cc(F)cc(F)c1` reads 8.00 to 9.00.

`C[C@H](Nc1nc(N)nc(N)c1C#N)c1nc2c(F)cc(F)cc2c(=O)n1-c1cc(F)cc(F)c1` gave a pIC50 of 7.30 to 8.00. The molecule `C[C@H](Nc1nc(N)nc(N)c1Cl)c1nc2cccc(Cl)c2c(=O)n1-c1ccccc1` had a pIC50 not below 9.00.

The molecule `C[C@H](Nc1nc(N)nc(N)c1C#N)c1nc2cccc(Cl)c2c(=O)n1-c1cccc(C(F)F)c1` gave a pIC50 not below 9.00.

In turn, `CC[C@H](Nc1nc(N)nc(N)c1C#N)c1nc2cccc(F)c2c(=O)n1-c1cccc(C(F)(F)F)c1` gave a pIC50 of 7.30 to 8.00. In turn, `C[C@H](Nc1nc(N)nc(N)c1C#N)c1nc2c(Cl)ccc(F)c2c(=O)n1-c1cc(F)cc(F)c1` had a pIC50 of 8.00 to 9.00. The result for `CC[C@H](Nc1nc(N)nc(N)c1C#N)c1nc2cccc(F)c2c(=O)n1-c1cccc(F)c1` reads 8.00 to 9.00; that for `C[C@H](Nc1nc(N)nc(N)c1C#N)c1cc2cccc(Cl)c2c(=O)n1-c1ccccc1`, not below 9.00; that for `CC[C@H](Nc1nc(N)nc(N)c1C#N)c1nc2cccc(F)c2c(=O)n1-c1cc(F)cc(C(F)F)c1`, 7.30 to 8.00.

`CC[C@H](Nc1nc(N)nc(N)c1C#N)c1nc2c(F)ccc(F)c2c(=O)n1-c1cccc(F)c1` gave a pIC50 of 8.00 to 9.00. As for `C[C@H](Nc1nc(N)nc(N)c1C#N)c1nc2cccc(S(C)(=O)=O)c2c(=O)n1-c1ccccc1`, the figure is 8.00 to 9.00; as for `Cc1ccc(F)c2c(=O)n(-c3cccc(C#N)c3)c([C@H](C)Nc3nc(N)nc(N)c3C#N)nc12`, 7.30 to 8.00; as for `COc1cc(F)cc(-n2c([C@H](C)Nc3nc(N)nc(N)c3C#N)nc3cccc(Cl)c3c2=O)c1`, 8.00 to 9.00.

For the molecule `CC[C@H](Nc1nc(N)nc(N)c1C#N)c1nc2c(C)cccc2c(=O)n1-c1cc(F)cc(F)c1`, the pIC50 is 7.30 to 8.00. The result for `C[C@H](Nc1nc(N)nc(N)c1C#N)c1nc2cccc(Br)c2c(=O)n1-c1cccc(F)c1` reads not below 9.00. The result for `C[C@H](Nc1nc(N)nc(N)c1C#N)c1nc2cccc(Cl)c2c(=O)n1-c1cc(Cl)cc(C(F)F)c1` reads 8.00 to 9.00. The result for `CCc1cccc2c(=O)n(-c3cc(F)cc(F)c3)c([C@H](C)Nc3nc(N)nc(N)c3C#N)nc12` reads 7.30 to 8.00; that for `C[C@H](Nc1nc(N)nc(N)c1C#N)c1nc2c(F)ccc(C#N)c2c(=O)n1-c1ccccc1`, 8.00 to 9.00; that for `Cc1cccc2c(=O)n(-c3ccccc3)c([C@H](C)Nc3nc(N)nc(N)c3C#N)nc12`, 8.00 to 9.00. Consider `Cc1ccc(F)c2c(=O)n(-c3ccccc3)c([C@H](C)Nc3nc(N)nc(N)c3C#N)nc12`, for which the pIC50 is 8.00 to 9.00. The result for `CC[C@H](Nc1nc(N)nc(N)c1C#N)c1nc2c(Cl)ccc(F)c2c(=O)n1-c1cc(F)cc(F)c1` reads 7.30 to 8.00. As for `C[C@H](Nc1nc(N)nc(N)c1C#N)c1nc2c(F)ccc(F)c2c(=O)n1-c1cccc(F)c1`, the figure is 8.00 to 9.00.

Molecule `C[C@H](Nc1nc(N)nc(N)c1C#N)c1nc2cccc(Cl)c2c(=O)n1-c1cc(F)cc(F)c1` gave a pIC50 not below 9.00. Take `C[C@H](Nc1nc(N)nc(N)c1C#N)c1nc2cccc(F)c2c(=O)n1-c1cccc(C(F)(F)F)c1`: the pIC50 was 8.00 to 9.00. For `C[C@H](Nc1nc(N)nc(N)c1C#N)c1nc2cccc(C#N)c2c(=O)n1-c1ccccc1`, the pIC50 is 8.00 to 9.00. The molecule `C[C@H](Nc1nc(N)nc(N)c1Cl)c1nc2c(F)ccc(Cl)c2c(=O)n1-c1ccccc1` showed a pIC50 of 8.00 to 9.00. As for `C[C@H](Nc1nc(N)nc(N)c1C#N)c1nc2cc(F)c(F)cc2c(=O)n1-c1cc(F)cc(F)c1`, the figure is 7.30 to 8.00.
